Data published in patent publication US20030087887A1, “Novel fusidic acid derivatives” (priority 2001, published 2003).
In brackets after ≈: the same amount, converted by molar mass. Read-outs that look alike come from different tables or passages of the source.

How the values were obtained:
Assay type in all cases: cell-based
S. aureus CJ247 = experiment: MIC, agar diffusion, S. aureus CJ247; conditions: Staphylococcus aureus, read-out: in vitro activities MIC
Excerpt: (§1) In vitro investigations have shown a relatively high potency of compounds of the invention against all bacteria including gram-positive and gram-negative strains (Staphylococci, Streptococci, Corynebacteriae, Mycobacteriae, Proteus, Propionibacterium, Pseudomonas, Neisseriae, E. coli) and fungal strains (Candida and Aspergillus). […] In addition, the studies of post-antibiotic effects point towards a strong bactericidal effect of the compounds of the invention. […] The potency of new polyaminated fusidic acid analogues is estimated by comparing the inhibition of growth of different microorganisms produced by known concentrations of the analogue to be examined and a reference compound such as fusidic acid. The microbiological assay set up is in agreement with the European Pharmacopoeia 3rd edition (1997). It is an agar diffusion method where the same volume of the tested solution is added to cavities in agar. The inhibition zones are function of the concentration of the fusidic acid analogue used. All assays are run with fusidic acid as reference substance.

S. aureus CJ200 = experiment: MIC, agar diffusion, S. aureus CJ200; conditions: Staphylococcus aureus, read-out: in vitro activities MIC
Excerpt: as §1

S. aureus CJ234R = experiment: MIC, agar diffusion, S. aureus CJ234R; conditions: Staphylococcus aureus, read-out: in vitro activities MIC
Excerpt: as §1

S. aureus CJ234F = experiment: MIC, agar diffusion, S. aureus CJ234F; conditions: Staphylococcus aureus; S. aureus CJ234F (MRSA, Fus. resistant); read-out: in vitro activities MIC
Excerpt: as §1

S. aureus N6 = experiment: MIC, agar diffusion, S. aureus N6; conditions: Staphylococcus aureus; S. aureus N6 (Fus. resistant); read-out: in vitro activities MIC
Excerpt: as §1

S. epidermis CK5 = experiment: MIC, agar diffusion, S. epidermis CK5; conditions: Staphylococcus epidermidis, read-out: in vitro activities MIC
Excerpt: as §1

[1] = test system: Propionibacterium acnes FN33; experiment: MIC, agar diffusion, Propionibacterium acnes FN33; conditions: Cutibacterium acnes, read-out: in vitro activities MIC
Excerpt: as §1

[2] = test system: Corynebacterium xerosis FF; experiment: MIC, agar diffusion, Corynebacterium xerosis FF; conditions: read-out: in vitro activities MIC
Excerpt: as §1

[3] = test system: Streptococcus pyogenes EC88; experiment: MIC, agar diffusion, Streptococcus pyogenes EC88; conditions: read-out: in vitro activities MIC
Excerpt: as §1

E. coli HA165 = experiment: MIC, agar diffusion, E. coli HA165; conditions: Escherichia coli, read-out: in vitro activities MIC
Excerpt: as §1

[4] = test system: Pseudomonas aeruginosa BA17; experiment: MIC, agar diffusion, Pseudomonas aeruginosa BA17; conditions: read-out: in vitro activities MIC
Excerpt: as §1

[5] = test system: Saccaromyces cervisiae ZZ7; experiment: MIC, agar diffusion, Saccaromyces cervisiae ZZ7; conditions: Saccharomyces cerevisiae, read-out: in vitro activities MIC
Excerpt: as §1

Candida albicans ZA = experiment: MIC, agar diffusion, Candida albicans ZA; conditions: read-out: in vitro activities MIC
Excerpt: as §1

Asbergillus niger ZM35 = experiment: MIC, agar diffusion, Asbergillus niger ZM35; conditions: Aspergillus niger, read-out: in vitro activities MIC
Excerpt: as §1

[6] = test system: Streptococcus faecium EI19; experiment: MIC, agar diffusion, Streptococcus faecium EI19; conditions: Enterococcus faecium; Streptococcus faecium EI19 (Penicillin resistant); read-out: in vitro activities MIC
Excerpt: as §1

SMILES	MIC (S. aureus CJ247)	MIC (S. aureus CJ200)	MIC (S. aureus CJ234R; S. aureus CJ234R (MRSA, Rifampicin resistant))	MIC (S. aureus CJ234F)	MIC (S. aureus N6)	MIC (S. epidermis CK5)	MIC [1]	MIC [2]	MIC [3]	MIC (E. coli HA165)	MIC [4]	MIC [5]	MIC (Candida albicans ZA)	MIC (Asbergillus niger ZM35)	MIC [6]	MIC (S. aureus CJ234R; MRSA)
CC(=O)O[C@H]1C[C@@]2(C)[C@@H](C[C@@H](O)[C@H]3[C@@]4(C)CC[C@@H](O)[C@@H](C)[C@@H]4CC[C@@]32C)/C1=C(\CCC=C(C)C)C(=O)O [FA, fusidic acid]	0.02 µg/mL (≈ 0.0387 µM)	0.02 µg/mL (≈ 0.0387 µM)	0.02 µg/mL (≈ 0.0387 µM)	16 µg/mL (≈ 31 µM)	16 µg/mL (≈ 31 µM)	0.02 µg/mL (≈ 0.0387 µM)	0.2 µg/mL (≈ 0.387 µM)	0.1 µg/mL (≈ 0.194 µM)	16 µg/mL (≈ 31 µM)	> 64 µg/mL	> 64 µg/mL	> 64 µg/mL	> 64 µg/mL	> 64 µg/mL	–	–
CC(=O)O[C@H]1C[C@@]2(C)C(CCC3[C@@]4(C)CC[C@@H](O)[C@@H](C)C4CC[C@@]32C)[C@@H]1[C@H](CCCC(C)C)C(=O)NCCCNCCCN (some centres unmarked) [Compound 131]	4 µg/mL (≈ 6.47 µM)	4 µg/mL (≈ 6.47 µM)	–	4 µg/mL (≈ 6.47 µM)	4 µg/mL (≈ 6.47 µM)	4 µg/mL (≈ 6.47 µM)	4 µg/mL (≈ 6.47 µM)	4 µg/mL (≈ 6.47 µM)	4 µg/mL (≈ 6.47 µM)	16 µg/mL (≈ 25.9 µM)	4 µg/mL (≈ 6.47 µM)	16 µg/mL (≈ 25.9 µM)	16 µg/mL (≈ 25.9 µM)	16 µg/mL (≈ 25.9 µM)	4 µg/mL (≈ 6.47 µM)	–
CC(C)CCCC(C(=O)NCCCNCCCNCCCN)[C@@H]1CC[C@@]2(C)C1C[C@@H](O)C1[C@@]3(C)CC[C@@H](O)[C@@H](C)C3CC[C@@]12C (stereo partly drawn) [Compound 145, 21-N-{[3′-({3′-[(3′-aminopropyl)amino]propyl}amino)propyl]}-16-desacetoxy-17R,20S,24,25-tetrahydrofusid-21-amide]	1 µg/mL (≈ 1.58 µM)	1 µg/mL (≈ 1.58 µM)	–	1 µg/mL (≈ 1.58 µM)	1 µg/mL (≈ 1.58 µM)	1 µg/mL (≈ 1.58 µM)	1 µg/mL (≈ 1.58 µM)	1 µg/mL (≈ 1.58 µM)	4 µg/mL (≈ 6.32 µM)	4 µg/mL (≈ 6.32 µM)	4 µg/mL (≈ 6.32 µM)	4 µg/mL (≈ 6.32 µM)	> 125 µg/mL	> 125 µg/mL	4 µg/mL (≈ 6.32 µM)	4 µg/mL (≈ 6.32 µM)
CC(=O)O[C@H]1C[C@@]2(C)C(CCC3[C@@]4(C)CC[C@@H](O)[C@@H](C)C4CC[C@@]32C)[C@@H]1[C@H](CCCC(C)C)C(=O)NCCNCCCNCCN (some centres unmarked) [Compound 133]	4 µg/mL (≈ 6.18 µM)	4 µg/mL (≈ 6.18 µM)	–	4 µg/mL (≈ 6.18 µM)	4 µg/mL (≈ 6.18 µM)	4 µg/mL (≈ 6.18 µM)	4 µg/mL (≈ 6.18 µM)	4 µg/mL (≈ 6.18 µM)	4 µg/mL (≈ 6.18 µM)	16 µg/mL (≈ 24.7 µM)	16 µg/mL (≈ 24.7 µM)	32 µg/mL (≈ 49.5 µM)	32 µg/mL (≈ 49.5 µM)	32 µg/mL (≈ 49.5 µM)	4 µg/mL (≈ 6.18 µM)	–
CC(C)CCCC(C(=O)NCCCNCCCCNCCCN)[C@@H]1CC[C@@]2(C)C1C[C@@H](O)C1[C@@]3(C)CC[C@@H](O)[C@@H](C)C3CC[C@@]12C (stereo partly drawn) [Compound 146, 21-N-{[3′-({4′-[(3′-aminopropyl)amino]butyl}amino)propyl]}-16-desacetoxy-17R,20S,24,25-tetrahydrofusid-21-amide]	1 µg/mL (≈ 1.55 µM)	1 µg/mL (≈ 1.55 µM)	–	1 µg/mL (≈ 1.55 µM)	1 µg/mL (≈ 1.55 µM)	1 µg/mL (≈ 1.55 µM)	1 µg/mL (≈ 1.55 µM)	1 µg/mL (≈ 1.55 µM)	1 µg/mL (≈ 1.55 µM)	4 µg/mL (≈ 6.18 µM)	16 µg/mL (≈ 24.7 µM)	4 µg/mL (≈ 6.18 µM)	> 125 µg/mL	> 125 µg/mL	1 µg/mL (≈ 1.55 µM)	–
